{"source": "patent US20220315895A1", "about": "“METHODS OF MAKING OLIGOPOTENT AND UNIPOTENT PRECURSORS” (Transfusion Health, LLC, priority 2019, published 2022)", "system": "expanded cord blood CD34+ cells, granulocyte precursor populations", "experiment": "Granulocyte Differentiation Culture, precursor phenotyping (Example 39)", "format": "cell-based, human", "source_text": "The remaining cells from duplicate flasks were pooled, and CD34+ cells were re-enriched using the CD34 MicroBead Kit—UltraPure (Miltenyi Biotec). CD34 purity was verified by flow cytometry. Enriched CD34+ cells were then placed into Granulocyte Differentiation Culture, described below.\nGranulocyte Differentiation Cultures were initiated prior to culture in Compound 1.010 (Unexpanded Granulocyte Differentiation Culture), following 21 days of culture in Compound 1.010 (+Formula I-expanded Differentiation Culture), or following 21 days of culture in Control condition (Control-expanded Differentiation Culture). Purified CD34+ cells were plated at 1000 cells per well in a 48-well plate, in granulocyte differentiation medium, made by combining StemSpan SFEM and StemSpan 100X Myeloid Expansion Supplement (formulated for differentiation of granulocytes) containing SCF, TPO, G-CSF, and GM-CSF (STEMCELL). Cells were plated in 300 μl/well. Unexpanded cells were plated in triplicate; Formula I and Control-expanded cells were plated in quadruplicate. Plates were then placed in a humidified incubator at atmospheric oxygen and 5% CO2. Exact cell numbers dispensed per well were quantified with flow cytometry for later calculations.\nOn days 7, and 10, additional differentiation medium was prepared and cells were passaged to fresh wells.\nOn days 7 and 13 of Granulocyte Differentiation Culture, a portion of the culture was removed for analysis and quantification of granulocyte differentiation via flow cytometry. Cells were stained with antibodies to CD16, CD15, CD14, CD13, CD11b, and CD34. Cells were gated into granulocyte precursor populations of promyelocyte (CD34−/CD14−/CD15+/CD16-/CD13high/CD11b−), myelocyte (CD34−/CD14−/CD15+/CD16−/CD13dim/CD11b+) and “metamyelocyte+” (CD34−/CD14−/CD15+/CD11b+/CD13+/CD16+). Promyelocyte is the least mature subset, myelocytes are at an intermediate level of maturity, and “metamyelocyte+” encompasses cells at the highest levels of granulocyte maturation, including metamyelocytes and mature neutrophils. Fractional representation and total numbers of granulocyte precursor subsets were calculated. Cell numbers calculated at day 13 account for passaging.", "key": {"[1]": {"conditions": "+Formula I Conditions, 13 days in Granulocyte Differentiation Culture, N 4"}, "[2]": {"conditions": "Formula I-expanded (21 days), seven days Granulocyte Differentiation Culture"}}, "data": [{"smiles": "CC(C)(C)C(=O)Nc1ccc2c(c1)C(O)c1ccccc1-2", "note": "(stereo not drawn) [Compound 1.010]", "values": [{"measurement": "Metamyelocyte+, Mean % of CD15+ cells", "setting": "[1]", "value": 35.2, "unit": "%"}, {"measurement": "Myelocyte, Mean % of CD15+ cells", "setting": "[1]", "value": 36.8, "unit": "%"}, {"measurement": "Promyelocyte, Mean % of CD15+ cells", "setting": "[1]", "value": 28, "unit": "%"}, {"measurement": "cells remaining undifferentiated, without expression of CD15", "setting": "[2]", "value": 20, "unit": "%"}, {"measurement": "cells still expressing CD34", "setting": "[2]", "value": 1.9, "unit": "%"}, {"measurement": "cells with high CD16 indicative of full differentiation to neutrophils", "setting": "[2]", "value": "No cells were detected with high CD16"}, {"measurement": "metamyelocytes (CD34−/CD14−/CD15+/CD13+/CD11b+/CD16+), of cultured cells", "setting": "[2]", "value": 8, "unit": "%"}, {"measurement": "myelocytes (CD34−/CD14−/CD15+/CD13low/CD11b+/CD16−), of cultured cells", "setting": "[2]", "value": 15, "unit": "%"}, {"measurement": "promyelocytes (CD34−/CD14−/CD15+/CD13+/CD11b−/CD16−), of cultured cells", "setting": "[2]", "value": 55, "unit": "%"}]}]}
